Test results taken from patent US8952024B2, “Herbicidal pyrimidone derivatives” (E I du Pont de Nemours and Company, priority 2009, dated 2015).

How the values were obtained:
Assay in all cases: Test D pre-/postemergence plant response
Type in all cases: in vivo
Details in all cases: Postemergence
[1] = tested on: prickly sida (Sida spinosa)
Outline: (§1)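 Each species was planted in mixed loam and sand, treated either before emergence or at the 1- to 4-leaf stage, then kept under glass for 14 to 21 days. Plant response was scored by eye from 0 to 100 relative to controls; a dash marks no result.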

[2] = tested on: field bindweed (Convolvulus arvensis)
Outline: as §1

[3] = tested on: quackgrass (Elytrigia repens)
Outline: as §1

[4] = tested on: johnsongrass (Sorghum halepense)
Outline: as §1

[5] = tested on: dayflower (Virginia (VA) dayflower, Commelina virginica)
Outline: as §1

[6] = tested on: mallow (common mallow, Malva sylvestris)
Outline: as §1

[7] = tested on: bermudagrass (Cynodon dactylon)
Outline: as §1

[8] = tested on: sandbur (southern sandbur, Cenchrus echinatus)
Outline: as §1

[9] = tested on: green foxtail (Setaria viridis)
Outline: as §1

[10] = tested on: goosegrass (Eleusine indica)
Outline: as §1

[11] = tested on: ragweed (common ragweed, Ambrosia elatior)
Outline: as §1

[12] = tested on: Italian ryegrass (Lolium multiflorum)
Outline: as §1

[13] = tested on: groundsel (common groundsel, Senecio vulgaris)
Outline: as §1

[14] = tested on: bluegrass (annual bluegrass, Poa annua)
Outline: as §1

[15] = 125 g ai/ha, scale 0 to 100 (0 no effect, 100 complete control)
[16] = 250 g ai/ha, scale 0 to 100 (0 no effect, 100 complete control)
[17] = 62 g ai/ha, scale 0 to 100 (0 no effect, 100 complete control)

CCCCn1c(-c2ccccc2)ncc(C(=O)C2=C(O)C3CCC(C3)C2=O)c1=O (stereo not shown) [Compound 240]
Plant response rating, Prickly Sida ([1]; 31 g ai/ha, scale 0 to 100): 35
Plant response rating, Prickly Sida [1, 15]: 75
Plant response rating, Prickly Sida [1, 16]: 75
Plant response rating, Prickly Sida [1, 17]: 65
Plant response rating, Field Bindweed ([2]; 31 g ai/ha, scale 0 to 100): 60
Plant response rating, Field Bindweed [2, 15]: 70
Plant response rating, Field Bindweed [2, 16]: 70
Plant response rating, Field Bindweed [2, 17]: 70
Plant response rating, Quackgrass ([3]; 31 g ai/ha, scale 0 to 100): 25
Plant response rating, Quackgrass [3, 15]: 35
Plant response rating, Quackgrass [3, 16]: 50
Plant response rating, Quackgrass [3, 17]: 30
Plant response rating, Johnsongrass ([4]; 31 g ai/ha, scale 0 to 100): 70
Plant response rating, Johnsongrass [4, 15]: 95
Plant response rating, Johnsongrass [4, 16]: 95
Plant response rating, Johnsongrass [4, 17]: 90
Plant response rating, Dayflower, VA ([5]; 31 g ai/ha, scale 0 to 100): 35
Plant response rating, Dayflower, VA [5, 15]: 70
Plant response rating, Dayflower, VA [5, 16]: 75
Plant response rating, Dayflower, VA [5, 17]: 60
Plant response rating, Mallow ([6]; 31 g ai/ha, scale 0 to 100): 10
Plant response rating, Mallow [6, 15]: 60
Plant response rating, Mallow [6, 16]: 60
Plant response rating, Mallow [6, 17]: 40
Plant response rating, Bermudagrass ([7]; 31 g ai/ha, scale 0 to 100): 85
Plant response rating, Bermudagrass [7, 15]: 95
Plant response rating, Bermudagrass [7, 16]: 95
Plant response rating, Bermudagrass [7, 17]: 95
Plant response rating, Sandbur ([8]; 31 g ai/ha, scale 0 to 100): 70
Plant response rating, Sandbur [8, 15]: 90
Plant response rating, Sandbur [8, 16]: 90
Plant response rating, Sandbur [8, 17]: 70
Plant response rating, Foxtail, Green ([9]; 31 g ai/ha, scale 0 to 100): 95
Plant response rating, Foxtail, Green [9, 15]: 98
Plant response rating, Foxtail, Green [9, 16]: 98
Plant response rating, Foxtail, Green [9, 17]: 98
Plant response rating, Goosegrass ([10]; 31 g ai/ha, scale 0 to 100): 70
Plant response rating, Goosegrass [10, 15]: 80
Plant response rating, Goosegrass [10, 16]: 80
Plant response rating, Goosegrass [10, 17]: 70
Plant response rating, Ragweed ([11]; 31 g ai/ha, scale 0 to 100): 70
Plant response rating, Ragweed [11, 15]: 80
Plant response rating, Ragweed [11, 16]: 90
Plant response rating, Ragweed [11, 17]: 75
Plant response rating, Ryegrass, Italian ([12]; 31 g ai/ha, scale 0 to 100): 0
Plant response rating, Ryegrass, Italian [12, 15]: 35
Plant response rating, Ryegrass, Italian [12, 16]: 35
Plant response rating, Ryegrass, Italian [12, 17]: 35
Plant response rating, Groundsel ([13]; 31 g ai/ha, scale 0 to 100): 100
Plant response rating, Groundsel [13, 15]: 100
Plant response rating, Groundsel [13, 16]: 100
Plant response rating, Groundsel [13, 17]: 100
Plant response rating, Bluegrass ([14]; 31 g ai/ha, scale 0 to 100): 5
Plant response rating, Bluegrass [14, 15]: 35
Plant response rating, Bluegrass [14, 16]: 35
Plant response rating, Bluegrass [14, 17]: 35

COCCCn1c(-c2cc(F)cc(F)c2)ncc(C(=O)C2=C(O)C3CCC(C3)C2=O)c1=O (stereo not shown) [Compound 244]
Plant response rating, Prickly Sida ([1]; 31 g ai/ha, scale 0 to 100): 25
Plant response rating, Prickly Sida [1, 15]: 40
Plant response rating, Prickly Sida [1, 16]: 60
Plant response rating, Prickly Sida [1, 17]: 35
Plant response rating, Field Bindweed ([2]; 31 g ai/ha, scale 0 to 100): 20
Plant response rating, Field Bindweed [2, 15]: 65
Plant response rating, Field Bindweed [2, 16]: 70
Plant response rating, Field Bindweed [2, 17]: 35
Plant response rating, Quackgrass ([3]; 31 g ai/ha, scale 0 to 100): 20
Plant response rating, Quackgrass [3, 15]: 50
Plant response rating, Quackgrass [3, 16]: 65
Plant response rating, Quackgrass [3, 17]: 40
Plant response rating, Johnsongrass ([4]; 31 g ai/ha, scale 0 to 100): 70
Plant response rating, Johnsongrass [4, 15]: 75
Plant response rating, Johnsongrass [4, 16]: 75
Plant response rating, Johnsongrass [4, 17]: 70
Plant response rating, Dayflower, VA ([5]; 31 g ai/ha, scale 0 to 100): 30
Plant response rating, Dayflower, VA [5, 15]: 65
Plant response rating, Dayflower, VA [5, 16]: 70
Plant response rating, Dayflower, VA [5, 17]: 50
Plant response rating, Mallow ([6]; 31 g ai/ha, scale 0 to 100): 50
Plant response rating, Mallow [6, 15]: 60
Plant response rating, Mallow [6, 16]: 70
Plant response rating, Mallow [6, 17]: 50
Plant response rating, Bermudagrass ([7]; 31 g ai/ha, scale 0 to 100): 80
Plant response rating, Bermudagrass [7, 15]: 95
Plant response rating, Bermudagrass [7, 16]: 95
Plant response rating, Bermudagrass [7, 17]: 80
Plant response rating, Sandbur ([8]; 31 g ai/ha, scale 0 to 100): 70
Plant response rating, Sandbur [8, 15]: 75
Plant response rating, Sandbur [8, 16]: 75
Plant response rating, Sandbur [8, 17]: 70
Plant response rating, Foxtail, Green ([9]; 31 g ai/ha, scale 0 to 100): 75
Plant response rating, Foxtail, Green [9, 15]: 95
Plant response rating, Foxtail, Green [9, 16]: 100
Plant response rating, Foxtail, Green [9, 17]: 90
Plant response rating, Goosegrass ([10]; 31 g ai/ha, scale 0 to 100): 50
Plant response rating, Goosegrass [10, 15]: 70
Plant response rating, Goosegrass [10, 16]: 70
Plant response rating, Goosegrass [10, 17]: 60
Plant response rating, Ragweed ([11]; 31 g ai/ha, scale 0 to 100): 65
Plant response rating, Ragweed [11, 15]: 80
Plant response rating, Ragweed [11, 16]: 85
Plant response rating, Ragweed [11, 17]: 70
Plant response rating, Ryegrass, Italian ([12]; 31 g ai/ha, scale 0 to 100): 5
Plant response rating, Ryegrass, Italian [12, 15]: 35
Plant response rating, Ryegrass, Italian [12, 16]: 60
Plant response rating, Ryegrass, Italian [12, 17]: 15
Plant response rating, Groundsel ([13]; 31 g ai/ha, scale 0 to 100): 100
Plant response rating, Groundsel [13, 15]: 100
Plant response rating, Groundsel [13, 16]: 100
Plant response rating, Groundsel [13, 17]: 100
Plant response rating, Bluegrass ([14]; 31 g ai/ha, scale 0 to 100): 0
Plant response rating, Bluegrass [14, 15]: 10
Plant response rating, Bluegrass [14, 16]: 20
Plant response rating, Bluegrass [14, 17]: 10
